Laboratory results as given in patent US9777002B2, “Inhibitors of the renal outer medullary potassium channel” (Merck Sharp & Dohme Corp., priority 2012, dated 2017).

How the values were obtained:
hROMK (hKir1.1) = target: T1, hROMK (hKir1.1) (Homo sapiens, UniProt P48048); test: Thallium Flux Assay; format: cell-based; conditions: HEK293 cells stably expressing hROMK (hKir1.1)
T1 construct: expressed in transfected cells
T1 sequence (P48048 1-391): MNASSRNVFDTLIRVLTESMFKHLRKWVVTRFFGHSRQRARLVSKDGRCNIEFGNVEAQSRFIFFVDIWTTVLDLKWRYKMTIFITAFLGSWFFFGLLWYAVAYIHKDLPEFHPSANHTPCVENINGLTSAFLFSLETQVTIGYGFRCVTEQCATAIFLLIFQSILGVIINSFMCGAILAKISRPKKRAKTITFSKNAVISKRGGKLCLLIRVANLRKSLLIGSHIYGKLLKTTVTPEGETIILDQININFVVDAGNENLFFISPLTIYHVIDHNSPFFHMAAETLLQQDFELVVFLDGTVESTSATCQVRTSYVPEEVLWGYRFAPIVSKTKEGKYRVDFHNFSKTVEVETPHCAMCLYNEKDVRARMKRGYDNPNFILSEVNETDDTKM
In short: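 HEK293 cells stably expressing hROMK were loaded with FluxOR dye for 90 min, then incubated with compound in probenecid assay buffer plus 0.3 mM ouabain, pH 7.4, for 30 min at 23-25 °C. Flux was triggered with 3 mM thallium/0.3 mM potassium (final) and read on FLIPR-Tetra for ~10 min. IC50 was calculated against the signal blocked by 3 μM control inhibitor.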

Kir1.1 (ROMK1) = target: T2, Kir1.1 (ROMK1) (Homo sapiens, UniProt P48048); test: Electrophysiology Assay (whole cell voltage clamp, IonWorks Quattro); format: cell-based; conditions: Chinese hamster ovary cells stably expressing Kir1.1; block during voltage step to 0 mV
T2 construct: expressed in transfected cells; expression induced with sodium butyrate
T2 sequence (P48048 1-391): T1 sequence (P48048 1-391)
Procedure: Block of Kir1.1 (ROMK1) currents was examined by whole cell voltage clamp (Hamill et. al. Pfluegers Archives 391:85-100 (1981)) using the IonWorks Quattro automated electrophysiology platform (Molecular Devices, Sunnyvale, Calif.). Chinese hamster ovary cells stably expressing Kir1.1 channels were maintained in T-75 flasks in cell culture media in a humidified 10% CO2 incubator at 37° C. Prior to an experiment, Kir1.1 expression was induced by overnight incubation with 1 mM sodium butyrate. On the day of the experiment, cells were dissociated with 2.5 mL of Versene (Invitrogen 15040-066) for approximately 6 min at 37° C. and suspended in 10 mL of bath solution containing (in mM): 150 NaCl, 10 KCl, 2.7 CaCl2, 0.5 MgCl2, 5 HEPES, pH 7.4. After centrifugation, the cell pellet was resuspended in approximately 4.0 mL of bath solution and placed in the IonWorks instrument. The intracellular solution consisted of (in mM): 80 K gluconate, 40 KCl, 20 KF, 3.2 MgCl2, 3 EGTA, 5 Hepes, pH 7.4. Electrical access to the cytoplasm was achieved by perforation in 0.13 mg/mL amphotericin B for 4 min. Amphotericin B (Sigma A-4888) was prepared as a 40 mg/mL solution in DMSO. Voltage protocols and current recordings were performed using the IonWorks HT software/hardware system. Currents were sampled at 1 kHz. No correction for liquid junction potentials was used. The test pulse, consisting of a 100 ms step to 0 mV from a holding potential of −70 mV, followed by a 100 ms voltage ramp from −70 mV to +70 mV, was applied before and after a 6 min compound incubation period. Test compounds were prepared by diluting DMSO stock solutions into the bath solution at 3× the final concentration and placed in the instrument in 96-well polypropylene plates. Current amplitudes were measured using the IonWorks software. To assess compound potency, the fractional block during the voltage step to 0 mV was calculated in Microsoft Excel (Microsoft, Redmond, Calif.), and dose-response curves were fitted with Igor Pro 4.0 (WaveMetrics, Lake Oswego, Oreg.). Normally, a control compound is included to support that the assay is giving consistent results compared to previous measurements, although the control is not required to obtain the results for the test compounds.

Cc1c(CCN2CCC(NC(=O)c3ccc4c(c3)COC4=O)CC2)ccc2c1COC2=O [Example 1, N-(1-(2-(4-Methyl-1-oxo-1,3-dihydroisobenzofuran-5-yl)ethyl)piperidin-4-yl)-1-oxo-1,3-dihydroisobenzofuran-5-carboxamide]
IC50 (hROMK (hKir1.1)): 10 nM | IC50 (Kir1.1 (ROMK1)): 40 nM

Cc1c(CCN2CCC(NC(=O)c3ccc(C#N)cc3S(C)(=O)=O)CC2)ccc2c1COC2=O [Example 29, 4-Cyano-N-(1-(2-(4-methyl-1-oxo-1,3-dihydroisobenzofuran-5-yl)ethyl)piperidin-4-yl)-2-(methylsulfonyl)benzamide]
IC50 (hROMK (hKir1.1)): 1230 nM | IC50 (Kir1.1 (ROMK1)): 240 nM

Cc1c(CCN2CCC(NC(=O)c3ccc(F)c(C#N)c3)CC2)ccc2c1COC2=O [Example 12, 3-Cyano-4-fluoro-N-(1-(2-(4-methyl-1-oxo-1,3-dihydroisobenzofuran-5-yl)ethyl)piperidin-4-yl)benzamide]
IC50 (hROMK (hKir1.1)): 1000 nM | IC50 (Kir1.1 (ROMK1)): 120 nM

Cc1c([C@@H](O)CN2CCC(C)(NC(=O)c3ccc(C#N)cn3)CC2)ccc2c1COC2=O [Example 40, (R)-5-Cyano-N-(1-(2-hydroxy-2-(4-methyl-1-oxo-1,3-dihydroisobenzofuran-5-yl)ethyl)-4-methylpiperidin-4-yl)picolinamide]
IC50 (hROMK (hKir1.1)): 1320 nM | IC50 (Kir1.1 (ROMK1)): 630 nM

Cc1c([C@@H](O)CN2CCC(N3Cc4cc([N+](=O)[O-])ccc4C3=O)CC2)ccc2c1COC2=O [Example 88, (R)-2-(1-(2-Hydroxy-2-(4-methyl-1-oxo-1,3-dihydroisobenzofuran-5-yl)ethyl)piperidin-4-yl)-5-nitroisoindolin-1-one]
IC50 (hROMK (hKir1.1)): 30 nM
